Measurements as given in the Kinase Knowledgebase extract (Sharma et al. 2016).

How the values were obtained:
PIK3CA (human) = PIK3CA (human) (UniProt P42336); test: Assessment of PIK3CA Kinase Activity
PIK3CD (Human) = PIK3CD (Human) (UniProt O00329); test: Assessment of PIK3CD Kinase Activity
PIK3CB (Human) = PIK3CB (Human) (UniProt P42338); test: Assessment of PIK3CB Kinase Activity
Sequence of PIK3CB (Human) (P42338 whole entry, looked up): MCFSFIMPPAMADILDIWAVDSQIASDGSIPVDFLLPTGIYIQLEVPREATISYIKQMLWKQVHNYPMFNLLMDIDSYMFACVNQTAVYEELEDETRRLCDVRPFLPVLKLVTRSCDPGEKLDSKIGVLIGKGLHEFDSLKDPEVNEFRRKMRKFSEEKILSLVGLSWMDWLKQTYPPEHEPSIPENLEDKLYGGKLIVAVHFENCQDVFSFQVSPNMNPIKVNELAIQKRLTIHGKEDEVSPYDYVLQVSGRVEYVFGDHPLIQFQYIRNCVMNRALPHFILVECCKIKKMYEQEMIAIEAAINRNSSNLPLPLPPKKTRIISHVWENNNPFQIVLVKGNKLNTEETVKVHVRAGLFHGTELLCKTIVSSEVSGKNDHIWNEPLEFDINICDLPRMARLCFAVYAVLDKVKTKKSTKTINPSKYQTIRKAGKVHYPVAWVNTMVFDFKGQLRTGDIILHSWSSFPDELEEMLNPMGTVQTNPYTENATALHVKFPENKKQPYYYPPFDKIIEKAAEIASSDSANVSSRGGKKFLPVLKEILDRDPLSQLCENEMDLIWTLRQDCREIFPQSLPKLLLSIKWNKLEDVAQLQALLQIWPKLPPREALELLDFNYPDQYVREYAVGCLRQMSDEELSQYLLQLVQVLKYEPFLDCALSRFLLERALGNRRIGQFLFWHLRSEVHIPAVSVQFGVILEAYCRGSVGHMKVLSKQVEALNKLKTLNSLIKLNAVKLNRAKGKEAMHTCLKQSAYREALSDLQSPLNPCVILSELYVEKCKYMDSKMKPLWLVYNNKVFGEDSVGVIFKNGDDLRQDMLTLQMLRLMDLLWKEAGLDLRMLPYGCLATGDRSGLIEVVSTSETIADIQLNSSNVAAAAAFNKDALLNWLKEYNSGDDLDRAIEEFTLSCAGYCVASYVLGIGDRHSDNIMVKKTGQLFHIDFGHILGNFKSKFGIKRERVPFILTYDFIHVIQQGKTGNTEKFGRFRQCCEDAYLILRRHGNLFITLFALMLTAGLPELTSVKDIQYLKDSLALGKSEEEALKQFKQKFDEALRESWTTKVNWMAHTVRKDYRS

Sequence of PIK3CD (Human) (O00329 whole entry, looked up): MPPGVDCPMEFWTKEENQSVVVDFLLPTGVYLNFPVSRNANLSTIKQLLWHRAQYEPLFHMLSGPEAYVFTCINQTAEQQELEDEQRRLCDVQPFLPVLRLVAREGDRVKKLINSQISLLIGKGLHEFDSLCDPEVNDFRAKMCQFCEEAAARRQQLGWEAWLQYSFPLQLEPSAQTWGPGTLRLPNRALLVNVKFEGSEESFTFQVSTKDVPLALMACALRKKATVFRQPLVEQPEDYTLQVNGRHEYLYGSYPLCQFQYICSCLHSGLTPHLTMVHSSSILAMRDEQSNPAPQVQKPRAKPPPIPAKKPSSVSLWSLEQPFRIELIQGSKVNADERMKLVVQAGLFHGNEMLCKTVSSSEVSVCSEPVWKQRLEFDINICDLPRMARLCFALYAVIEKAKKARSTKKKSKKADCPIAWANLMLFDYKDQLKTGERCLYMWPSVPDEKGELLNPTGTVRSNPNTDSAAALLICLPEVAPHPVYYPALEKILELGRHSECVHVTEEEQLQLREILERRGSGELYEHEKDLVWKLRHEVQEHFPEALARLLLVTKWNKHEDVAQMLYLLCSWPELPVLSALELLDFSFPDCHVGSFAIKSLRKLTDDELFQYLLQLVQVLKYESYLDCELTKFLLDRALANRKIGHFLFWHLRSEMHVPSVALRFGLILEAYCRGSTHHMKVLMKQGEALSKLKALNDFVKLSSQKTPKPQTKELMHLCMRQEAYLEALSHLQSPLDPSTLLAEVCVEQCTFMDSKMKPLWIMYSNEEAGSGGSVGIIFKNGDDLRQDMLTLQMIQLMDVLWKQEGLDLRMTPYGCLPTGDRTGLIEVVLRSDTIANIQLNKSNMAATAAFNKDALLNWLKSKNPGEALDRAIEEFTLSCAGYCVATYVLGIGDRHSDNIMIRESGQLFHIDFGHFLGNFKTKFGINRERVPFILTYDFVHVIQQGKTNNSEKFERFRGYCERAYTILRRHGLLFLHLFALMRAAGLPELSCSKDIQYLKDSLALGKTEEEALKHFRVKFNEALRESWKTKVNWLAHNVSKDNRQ
Sequence of PIK3CA (human) (P42336 whole entry, looked up): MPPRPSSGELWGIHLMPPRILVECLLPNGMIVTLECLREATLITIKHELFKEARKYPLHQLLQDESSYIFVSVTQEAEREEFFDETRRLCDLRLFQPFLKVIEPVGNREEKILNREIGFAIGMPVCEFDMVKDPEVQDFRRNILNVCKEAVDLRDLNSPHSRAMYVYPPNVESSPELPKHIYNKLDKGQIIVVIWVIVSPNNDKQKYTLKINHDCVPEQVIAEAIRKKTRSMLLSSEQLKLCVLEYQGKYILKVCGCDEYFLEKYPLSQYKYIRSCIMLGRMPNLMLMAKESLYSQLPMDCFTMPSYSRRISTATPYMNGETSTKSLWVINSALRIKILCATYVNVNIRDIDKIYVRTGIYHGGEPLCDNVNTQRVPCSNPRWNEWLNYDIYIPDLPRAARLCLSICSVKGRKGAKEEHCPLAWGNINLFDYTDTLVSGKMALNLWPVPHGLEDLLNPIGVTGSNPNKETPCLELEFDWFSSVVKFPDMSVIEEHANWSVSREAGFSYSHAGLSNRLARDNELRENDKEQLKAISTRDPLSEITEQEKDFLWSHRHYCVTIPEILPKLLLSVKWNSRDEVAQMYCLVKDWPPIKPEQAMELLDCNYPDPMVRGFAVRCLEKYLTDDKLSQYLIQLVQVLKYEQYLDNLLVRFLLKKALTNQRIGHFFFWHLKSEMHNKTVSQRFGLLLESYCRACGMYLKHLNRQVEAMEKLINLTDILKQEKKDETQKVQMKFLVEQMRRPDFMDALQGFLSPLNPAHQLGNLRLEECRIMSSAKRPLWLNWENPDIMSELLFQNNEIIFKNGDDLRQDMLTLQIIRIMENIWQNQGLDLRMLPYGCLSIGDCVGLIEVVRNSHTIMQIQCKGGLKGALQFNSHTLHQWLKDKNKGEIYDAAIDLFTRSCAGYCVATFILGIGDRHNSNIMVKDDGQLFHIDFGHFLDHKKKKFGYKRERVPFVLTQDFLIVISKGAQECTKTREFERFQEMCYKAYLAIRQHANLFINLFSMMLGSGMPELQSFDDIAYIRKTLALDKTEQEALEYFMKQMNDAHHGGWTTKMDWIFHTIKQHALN

Compound | IC50 (PIK3CA (human)) | IC50 (PIK3CD (Human)) | IC50 (PIK3CB (Human))
COc1cccc2c1nc(C(F)F)n2-c1nc(N2CCOCC2)c2cnn(C3CCN(S(=O)(=O)CCN(C)C)CC3)c2n1 | < 100 nM | 100 to 1000 nM | 100 to 1000 nM
COc1cccc2c1nc(C(F)F)n2-c1nc(OC2CCN(S(=O)(=O)CCN3CCOCC3)CC2)nc(N2CCOCC2)n1 | < 100 nM | < 100 nM | –
COc1cccc2c1nc(C(F)F)n2-c1nc(N2CCOCC2)nc(N(CCCN(C)C)C2CCN(S(=O)(=O)CCl)CC2)n1 | 100 to 1000 nM | < 100 nM | –
COc1cc(N)cc2c1nc(C(F)F)n2-c1nc(N2CCOCC2)nc(N2CCN(S(=O)(=O)CCN(C)C)CC2)n1 | < 100 nM | < 100 nM | 100 to 1000 nM
CN(C)CCCOc1cccc2c1nc(C(F)F)n2-c1nc(OC2CCN(S(C)(=O)=O)CC2)nc(N2CCOCC2)n1 | 100 to 1000 nM | 100 to 1000 nM | –
COc1cccc2c1nc(C(F)F)n2-c1nc(N2CCOCC2)nc(N2CCC[C@H](N(CCCN(C)C)S(C)(=O)=O)C2)n1 | 100 to 1000 nM | 100 to 1000 nM | –

Second part, the compound after the results:

IC50 (PIK3CA (human)) | IC50 (PIK3CD (Human)) | IC50 (PIK3CB (Human)) | Compound
100 to 1000 nM | 100 to 1000 nM | – | CN(C)CCS(=O)(=O)N1CCN(c2nc(N3CCOCC3)nc(-n3c(C(F)F)nc4ccccc43)n2)CC1
100 to 1000 nM | – | – | COc1cccc2c1nc(C(F)F)n2-c1nc(-c2ccc(S(=O)(=O)N3CCN(C)CC3)cc2)nc(N2CCOCC2)n1
100 to 1000 nM | 100 to 1000 nM | – | COc1cccc2c1nc(C(F)F)n2-c1nc(-c2ccc(N(C)S(=O)(=O)CCN(C)C)cc2)nc(N2CCOCC2)n1
